According to patent US20050222266A1, “2-indanylamino derivatives for the therapy of chronic pain” (priority 2002, published 2005):
Counter-ions that a name gives are not always drawn.

Assays:
[1] = tested on: carrageenan-induced thermal hyperalgesia; test: carrageenan-induced thermal hyperalgesia model; format: in vivo, rats; settings: for minimum effective dose: given 3 hours after carrageenan
Description: In the carrageenan-induced thermal hyperalgesia model, male rats were habituated to the rat plantar test apparatus and thermal hyperalgesia was then assessed as described in the paragraph concerning the CCI model. Briefly, after baseline paw withdrawal latencies were determined, animals received an intraplantar injection of carrageenan (100 μl of a 20 mg/ml solution) into the right hind paw. Paw withdrawal latencies (PWL) were reassessed following the same protocol as above 2.5 hours after carrageenan. (this time point represented the start of peak hyperalgesia) to ascertain that hyperalgesia had developed. CHF 3381 (3-10-30-60 mg/kg i.p. and 10-30-60-100 mg/kg p.o.) was then administered 3 hours post carrageenan and paw withdrawal latencies were taken again at 3.5, 4 and 5 hours post carrageenan. Carrageenan induced a significant reduction of paw withdrawal latency in all animals at 2.5 hours following injection. This hyperalgesia was maintained in vehicle-treated animals for at least five hours after carrageenan. The i.p. and p.o. administration of CHF 3381 at 3 hours after carrageenan, dose-dependently antagonised the maintenance of thermal hyperalgesia with respective minimum effective doses of 10 mg/kg i.p. and 30 mg/kg p.o. (Table 5).

[2] = tested on: thermal hyperalgesia produced by CCI; test: Chronic Constriction Injury (CCI) model, thermal hyperalgesia (plantar test); format: in vivo; settings: rat CCI
Description: The potential analgesic activity of CHF 3381 was evaluated the Chronic Constriction Injury (CCI) model described by Bennett et al (Pain 1988, 33: 87-107). Briefly, the rat left common sciatic nerve was exposed, and proximal to the sciatic trifurcation about 10 mm of nerve was freed of adhering tissue and four ligatures (4.0 silk ) were loosely tied around it with about 1 mm of spacing.
Two tests of hind limb withdrawal to thermal and cold stimuli were employed in this study. Each test was repeated on both the operated hind paw and the controlateral hind paw.
Rats were tested for thermal hyperalgesia using a commercial available analgesimeter (Plantar test, Ugo Basile, Comerio Italy) by applying heat stimulus (50 W, 8V) directed onto the plantar surface of each hind paw, and the paw withdrawal latency (s) was determined. Four latency measurements were taken for each hind paw and averaged. The apparatus was calibrated to give a paw withdrawal latency of approximately 10 sec. The results were expressed as the difference score (DS) by subtracting the latency of the control side from the latency of the ligated side; if this difference was less than 1.5 sec, the animal was not included in the experimental groups. CHF 3381 (10-30-60 mg/kg intraperitoneally -i.p.-) or vehicle were administered to animals 14-21 days after ligation and hyperalgesia tested 1, 2 and 4 hours after treatment. CHF3381 reversed the thermal hyperalgesia produced by CCI in a dose- and time-dependent manner with a maximum effect at 60 min after the administration.

[3] = tested on: mechanical hyperalgesia in streptozotocin (STZ)-induced diabetic neuropathy; test: streptozotocin-induced diabetic neuropathy, paw pressure test; format: in vivo, rat; settings: for Nociceptive threshold: 60 minutes before measurement; for % variation of the nociceptive threshold: vs vehicle-treated diabetic group
Description: The objective of this study was to assess the antinociceptive effects of CHF 3381 (25, 50 and 100 mg/kg p.o.) and gabapentin (100 mg/kg p.o) on mechanical hyperalgesia in streptozotocin (STZ)-induced diabetic neuropathy in rats. Diabetes was induced by intraperitoneal injection of STZ (75 mg/kg), and 23 days later its presence was confirmed by measuring of tail vein blood glucose levels and only rats with […] were included in the study.
After 25 days, distilled water, CHF3381 and gabapentin were administered 60 minutes before pain measurement. The nociceptive threshold was evaluated in all groups using a mechanical nociceptive stimulation (paw pressure test).
An increasing pressure (grams of contact pressure) was applied onto the both hind paws of the animal until a nociceptive reaction (vocalisation or paw withdrawal) was determined. The results, expressed as the percentage variation of the nociceptive threshold calculated respect the mean value of the vehicle-treated diabetic group, are reported in Table 2.

[4] = rotarod test, mice; settings: mouse, in vivo, 15 min before test
Description: The side-effect profile of CHF 3381 was then evaluated in the rotarod test both in mice and rats. The day before the execution of the test, mice and rats were trained to maintain their equilibrium on the test apparatus. For mice, training consisted of 3 subsequent 2 min attempts on a rod rotating from 4.5 r.p.m. to 16.5 r.p.m.; for rats, of 3 subsequent 1 min attempts at 8 rpm (Kinnard and Carr, 1957). The morning of the test day, mice and rats were again tested on the rotarod and only animals able to maintain their equilibrium on the rod were retained for the experimental procedure. CHF 3381 was administered p.o. or i.p. to groups of at least 8 animals 15 min (time of peak effect for neurotoxicity) before the execution of the test. All controls received the corresponding vehicle. The number of mice falling during a 2-min test period and the number of rats falling for 3 subsequent 1-min attempts were used for the calculation of the respective doses at which 50% of the animals display neurotoxicity (TD50).

`NC(=O)CNC1Cc2ccccc2C1` [CHF 3381, N-2(indanyl)-glicinamide hydrochloride] gave a Paw withdrawal latency ([1]; 3 mg/kg i.p. at 3 h, 3.5 h after carrageenan) of 5.1 ± 0.60 s, a Paw withdrawal latency ([1]; 3 mg/kg i.p. at 3 h, 4.0 h after carrageenan) of 6.7 ± 0.64 s and a Paw withdrawal latency ([1]; 3 mg/kg i.p. at 3 h, 5.0 h after carrageenan) of 8.3 ± 0.50 s. For the same compound, the Paw withdrawal latency ([1]; 3 mg/kg i.p. group, 0 h (baseline, before carrageenan and dosing)) was 11.2 ± 0.92 s, the Paw withdrawal latency ([1]; 3 mg/kg i.p. group, 2.5 h after carrageenan (before dosing at 3 h)) was 4.4 ± 0.50 s and the Paw withdrawal latency ([1]; 10 mg/kg i.p. at 3 h, 3.5 h after carrageenan) was 7.4 ± 0.50 s. For the same compound, the Paw withdrawal latency ([1]; 10 mg/kg i.p. at 3 h, 4.0 h after carrageenan) was 7.8 ± 0.66 s, the Paw withdrawal latency ([1]; 10 mg/kg i.p. at 3 h, 5.0 h after carrageenan) was 8.4 ± 0.80 s and the Paw withdrawal latency ([1]; 10 mg/kg i.p. group, 0 h (baseline, before carrageenan and dosing)) was 11.8 ± 0.49 s. The Paw withdrawal latency ([1]; 10 mg/kg i.p. group, 2.5 h after carrageenan (before dosing at 3 h)) was 5.1 ± 0.50 s, the Paw withdrawal latency ([1]; 10 mg/kg p.o. at 3 h, 3.5 h after carrageenan) was 6.65 ± 1.2 s and the Paw withdrawal latency ([1]; 10 mg/kg p.o. at 3 h, 4.0 h after carrageenan) was 6.90 ± 0.61 s. It also gave a Paw withdrawal latency ([1]; 10 mg/kg p.o. at 3 h, 5.0 h after carrageenan) of 7.29 ± 0.83 s, a Paw withdrawal latency ([1]; 10 mg/kg p.o. group, 0 h (baseline, before carrageenan and dosing)) of 12.96 ± 1.01 s and a Paw withdrawal latency ([1]; 10 mg/kg p.o. group, 2.5 h after carrageenan (before dosing at 3 h)) of 4.79 ± 0.71 s. It also gave a Paw withdrawal latency ([1]; 30 mg/kg i.p. at 3 h, 3.5 h after carrageenan) of 6.8 ± 0.70 s, a Paw withdrawal latency ([1]; 30 mg/kg i.p. at 3 h, 4.0 h after carrageenan) of 8.8 ± 0.80 s and a Paw withdrawal latency ([1]; 30 mg/kg i.p. at 3 h, 5.0 h after carrageenan) of 8.1 ± 0.80 s. The Paw withdrawal latency ([1]; 30 mg/kg i.p. group, 0 h (baseline, before carrageenan and dosing)) was 11.3 ± 0.84 s, the Paw withdrawal latency ([1]; 30 mg/kg i.p. group, 2.5 h after carrageenan (before dosing at 3 h)) was 4.7 ± 0.60 s and the Paw withdrawal latency ([1]; 30 mg/kg p.o. at 3 h, 3.5 h after carrageenan) was 7.38 ± 0.65 s. For the same compound, the Paw withdrawal latency ([1]; 30 mg/kg p.o. at 3 h, 4.0 h after carrageenan) was 7.61 ± 0.59 s, the Paw withdrawal latency ([1]; 30 mg/kg p.o. at 3 h, 5.0 h after carrageenan) was 9.04 ± 0.85 s and the Paw withdrawal latency ([1]; 30 mg/kg p.o. group, 0 h (baseline, before carrageenan and dosing)) was 11.98 ± 0.71 s. It also gave a Paw withdrawal latency ([1]; 30 mg/kg p.o. group, 2.5 h after carrageenan (before dosing at 3 h)) of 5.78 ± 0.93 s, a Paw withdrawal latency ([1]; 60 mg/kg i.p. at 3 h, 3.5 h after carrageenan) of 8.0 ± 1.20 s and a Paw withdrawal latency ([1]; 60 mg/kg i.p. at 3 h, 4.0 h after carrageenan) of 10.4 ± 1.39 s. It also gave a Paw withdrawal latency ([1]; 60 mg/kg i.p. at 3 h, 5.0 h after carrageenan) of 10.7 ± 0.90 s, a Paw withdrawal latency ([1]; 60 mg/kg i.p. group, 0 h (baseline, before carrageenan and dosing)) of 11.4 ± 0.85 s and a Paw withdrawal latency ([1]; 60 mg/kg i.p. group, 2.5 h after carrageenan (before dosing at 3 h)) of 4.1 ± 0.50 s. For the same compound, the Paw withdrawal latency ([1]; 60 mg/kg p.o. at 3 h, 3.5 h after carrageenan) was 8.68 ± 1.16 s, the Paw withdrawal latency ([1]; 60 mg/kg p.o. at 3 h, 4.0 h after carrageenan) was 8.20 ± 0.85 s and the Paw withdrawal latency ([1]; 60 mg/kg p.o. at 3 h, 5.0 h after carrageenan) was 8.34 ± 0.81 s. For the same compound, the Paw withdrawal latency ([1]; 60 mg/kg p.o. group, 0 h (baseline, before carrageenan and dosing)) was 11.98 ± 0.67 s, the Paw withdrawal latency ([1]; 60 mg/kg p.o. group, 2.5 h after carrageenan (before dosing at 3 h)) was 5.22 ± 0.58 s and the “reversal of thermal hyperalgesia induced by carrageenan” value ([1]; 100 mg/kg p.o. and 60 mg/kg i.p.) was “nearly complete reversal”. For the same compound, the Paw withdrawal latency ([1]; 100 mg/kg p.o. at 3 h, 3.5 h after carrageenan) was 10.31 ± 1.20 s, the Paw withdrawal latency ([1]; 100 mg/kg p.o. at 3 h, 4.0 h after carrageenan) was 8.72 ± 0.75 s and the Paw withdrawal latency ([1]; 100 mg/kg p.o. at 3 h, 5.0 h after carrageenan) was 9.34 ± 0.85 s. The Paw withdrawal latency ([1]; 100 mg/kg p.o. group, 0 h (baseline, before carrageenan and dosing)) was 13.24 ± 0.75 s, the Paw withdrawal latency ([1]; 100 mg/kg p.o. group, 2.5 h after carrageenan (before dosing at 3 h)) was 5.52 ± 0.96 s and the minimum effective dose ([1]; i.p.) was 10 mg/kg. The minimum effective dose ([1]; p.o.) was 30 mg/kg, the “Hyperalgesia Difference score (DS)” value ([2]; 10 mg/kg i.p.) was 1.41 ± 0.36 s and the “Hyperalgesia Difference score (DS)” value ([2]; 30 mg/kg i.p.) was 0.83 ± 0.35 s. The “Hyperalgesia Difference score (DS)” value ([2]; 60 mg/kg i.p.) was 0.68 ± 0.14 s, the Nociceptive threshold ([3]; 25 mg/kg p.o.) was 250.0 ± 17.0 g and the “% variation of the nociceptive threshold” value ([3]; 25 mg/kg p.o.) was 83%. The Nociceptive threshold ([3]; 50 mg/kg p.o.) was 319.2 ± 48.5 g, the “% variation of the nociceptive threshold” value ([3]; 50 mg/kg p.o.) was 134% and the Nociceptive threshold ([3]; 100 mg/kg p.o.) was 287.5 ± 20.3 g. For the same compound, the “% variation of the nociceptive threshold” value ([3]; 100 mg/kg p.o.) was 110%, the TD50 at 15 min ([4]; ip, i.p. administration) was 96 mg/kg and the TD50 at 15 min ([4]; oral administration) was 233 mg/kg.
